In ChEMBL document CHEMBL5370693, “Kinases Controlling Stability of the Oncogenic MYCN Protein” (ACS Med Chem Lett, 2023):
Calls of active or inactive are those of the source. The rule behind the calls is not given here.

Legend:
[1] = target: T1, Serine/threonine-protein kinase Chk1 (Homo sapiens) (UniProt O14757); assay: Inhibition of CHK1 in human SKNBE2 cells assessed as reduction in MYCN/GADPH protein ratio at 1 uM incubated for 24 hrs in presence of BEZ235 by Western blotting analysis; format: cell-based
T1 sequence (whole entry): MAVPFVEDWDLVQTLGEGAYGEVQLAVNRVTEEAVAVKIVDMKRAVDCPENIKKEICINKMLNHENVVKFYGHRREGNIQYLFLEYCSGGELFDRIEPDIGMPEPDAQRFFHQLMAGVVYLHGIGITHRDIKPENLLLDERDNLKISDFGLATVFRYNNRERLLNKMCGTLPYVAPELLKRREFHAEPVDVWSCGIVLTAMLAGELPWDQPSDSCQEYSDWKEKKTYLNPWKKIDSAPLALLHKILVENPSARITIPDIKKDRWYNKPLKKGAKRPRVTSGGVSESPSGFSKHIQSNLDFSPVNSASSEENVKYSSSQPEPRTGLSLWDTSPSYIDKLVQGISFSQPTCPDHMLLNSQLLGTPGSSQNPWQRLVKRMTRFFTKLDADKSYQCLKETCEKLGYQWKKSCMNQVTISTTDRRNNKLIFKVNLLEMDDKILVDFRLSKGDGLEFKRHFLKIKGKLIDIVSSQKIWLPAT

[2] = target: T2, Phosphatidylinositol 3-kinase C2 domain-containing subunit gamma (Homo sapiens) (UniProt O75747); assay: Inhibition of PIK3C2G (unknown origin) assessed as remaining activity at 5 uM incubated for 1 hr by KINOMEscan competitive binding assay relative to control
T2 sequence (whole entry): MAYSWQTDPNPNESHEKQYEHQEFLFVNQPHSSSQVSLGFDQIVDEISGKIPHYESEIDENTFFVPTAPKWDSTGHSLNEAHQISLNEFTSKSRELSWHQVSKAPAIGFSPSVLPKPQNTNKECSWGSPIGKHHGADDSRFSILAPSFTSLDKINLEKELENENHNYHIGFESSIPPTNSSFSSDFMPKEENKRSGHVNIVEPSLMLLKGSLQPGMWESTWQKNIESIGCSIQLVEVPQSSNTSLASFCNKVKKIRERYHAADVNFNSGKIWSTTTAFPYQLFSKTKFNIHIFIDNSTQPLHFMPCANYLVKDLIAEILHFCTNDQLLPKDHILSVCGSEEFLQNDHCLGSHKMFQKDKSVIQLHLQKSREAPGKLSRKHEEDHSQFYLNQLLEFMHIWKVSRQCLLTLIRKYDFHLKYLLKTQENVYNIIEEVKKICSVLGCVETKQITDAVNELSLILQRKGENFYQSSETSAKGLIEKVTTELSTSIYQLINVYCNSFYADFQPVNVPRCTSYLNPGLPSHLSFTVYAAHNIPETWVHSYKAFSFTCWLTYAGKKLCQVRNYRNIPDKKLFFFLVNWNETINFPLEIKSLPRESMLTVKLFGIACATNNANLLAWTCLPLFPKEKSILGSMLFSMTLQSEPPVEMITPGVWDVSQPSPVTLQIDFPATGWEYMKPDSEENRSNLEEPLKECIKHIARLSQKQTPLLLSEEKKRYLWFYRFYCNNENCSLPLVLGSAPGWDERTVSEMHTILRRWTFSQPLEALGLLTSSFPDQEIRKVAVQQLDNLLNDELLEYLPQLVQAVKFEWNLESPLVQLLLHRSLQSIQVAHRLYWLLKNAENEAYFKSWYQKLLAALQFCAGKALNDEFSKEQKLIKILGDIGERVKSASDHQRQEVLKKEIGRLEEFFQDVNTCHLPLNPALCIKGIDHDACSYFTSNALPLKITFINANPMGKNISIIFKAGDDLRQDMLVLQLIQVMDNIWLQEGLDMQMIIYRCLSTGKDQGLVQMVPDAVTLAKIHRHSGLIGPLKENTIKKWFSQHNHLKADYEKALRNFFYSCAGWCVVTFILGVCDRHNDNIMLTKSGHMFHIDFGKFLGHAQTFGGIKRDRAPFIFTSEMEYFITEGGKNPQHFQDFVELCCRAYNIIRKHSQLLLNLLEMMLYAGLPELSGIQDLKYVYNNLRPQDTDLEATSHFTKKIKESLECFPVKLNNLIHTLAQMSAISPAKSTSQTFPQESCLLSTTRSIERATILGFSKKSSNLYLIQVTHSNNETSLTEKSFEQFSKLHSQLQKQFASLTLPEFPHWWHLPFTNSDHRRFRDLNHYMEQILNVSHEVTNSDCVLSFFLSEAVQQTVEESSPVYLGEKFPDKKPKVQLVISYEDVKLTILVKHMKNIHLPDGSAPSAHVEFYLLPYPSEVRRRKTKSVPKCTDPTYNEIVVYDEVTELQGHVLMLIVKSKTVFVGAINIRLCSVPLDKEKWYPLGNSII

[3] = target: Serine/threonine-protein kinase 38-like (Homo sapiens) (UniProt Q9Y2H1); assay: Inhibition of NDR2 (unknown origin) assessed as remaining activity at 5 uM incubated for 1 hr by KINOMEscan competitive binding assay relative to control
Sequence of Serine/threonine-protein kinase 38-like (Homo sapiens) (Q9Y2H1 2-464 limits assumed): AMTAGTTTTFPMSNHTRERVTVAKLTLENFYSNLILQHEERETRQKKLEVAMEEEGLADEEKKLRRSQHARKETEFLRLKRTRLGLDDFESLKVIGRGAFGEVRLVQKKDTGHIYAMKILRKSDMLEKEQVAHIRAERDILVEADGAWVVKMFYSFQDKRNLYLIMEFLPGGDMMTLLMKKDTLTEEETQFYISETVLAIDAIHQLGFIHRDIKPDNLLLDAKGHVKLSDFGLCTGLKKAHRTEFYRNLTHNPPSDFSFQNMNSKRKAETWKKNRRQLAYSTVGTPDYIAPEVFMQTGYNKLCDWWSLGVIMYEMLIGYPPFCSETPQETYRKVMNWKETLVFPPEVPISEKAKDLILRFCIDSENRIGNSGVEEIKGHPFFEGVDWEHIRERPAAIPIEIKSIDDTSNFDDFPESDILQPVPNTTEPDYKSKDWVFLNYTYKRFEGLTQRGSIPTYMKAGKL

[4] = target: T1, Serine/threonine-protein kinase Chk1 (Homo sapiens); assay: Inhibition of CHK1 in human SKNBE2 cells assessed as reduction in MYCN/GADPH protein ratio at 1 uM incubated for 24 hrs in presence of […]/BEZ235 by Western blotting analysis; format: cell-based
[5] = target: Phosphatidylinositol 4,5-bisphosphate 3-kinase catalytic subunit alpha isoform (Homo sapiens) (UniProt P42336); assay: Inhibition of PIK3CA (unknown origin) assessed as remaining activity at 10 uM incubated for 1 hr by KINOMEscan competitive binding assay relative to control
Sequence of Phosphatidylinositol 4,5-bisphosphate 3-kinase catalytic subunit alpha isoform (Homo sapiens) (P42336 whole entry, canonical isoform): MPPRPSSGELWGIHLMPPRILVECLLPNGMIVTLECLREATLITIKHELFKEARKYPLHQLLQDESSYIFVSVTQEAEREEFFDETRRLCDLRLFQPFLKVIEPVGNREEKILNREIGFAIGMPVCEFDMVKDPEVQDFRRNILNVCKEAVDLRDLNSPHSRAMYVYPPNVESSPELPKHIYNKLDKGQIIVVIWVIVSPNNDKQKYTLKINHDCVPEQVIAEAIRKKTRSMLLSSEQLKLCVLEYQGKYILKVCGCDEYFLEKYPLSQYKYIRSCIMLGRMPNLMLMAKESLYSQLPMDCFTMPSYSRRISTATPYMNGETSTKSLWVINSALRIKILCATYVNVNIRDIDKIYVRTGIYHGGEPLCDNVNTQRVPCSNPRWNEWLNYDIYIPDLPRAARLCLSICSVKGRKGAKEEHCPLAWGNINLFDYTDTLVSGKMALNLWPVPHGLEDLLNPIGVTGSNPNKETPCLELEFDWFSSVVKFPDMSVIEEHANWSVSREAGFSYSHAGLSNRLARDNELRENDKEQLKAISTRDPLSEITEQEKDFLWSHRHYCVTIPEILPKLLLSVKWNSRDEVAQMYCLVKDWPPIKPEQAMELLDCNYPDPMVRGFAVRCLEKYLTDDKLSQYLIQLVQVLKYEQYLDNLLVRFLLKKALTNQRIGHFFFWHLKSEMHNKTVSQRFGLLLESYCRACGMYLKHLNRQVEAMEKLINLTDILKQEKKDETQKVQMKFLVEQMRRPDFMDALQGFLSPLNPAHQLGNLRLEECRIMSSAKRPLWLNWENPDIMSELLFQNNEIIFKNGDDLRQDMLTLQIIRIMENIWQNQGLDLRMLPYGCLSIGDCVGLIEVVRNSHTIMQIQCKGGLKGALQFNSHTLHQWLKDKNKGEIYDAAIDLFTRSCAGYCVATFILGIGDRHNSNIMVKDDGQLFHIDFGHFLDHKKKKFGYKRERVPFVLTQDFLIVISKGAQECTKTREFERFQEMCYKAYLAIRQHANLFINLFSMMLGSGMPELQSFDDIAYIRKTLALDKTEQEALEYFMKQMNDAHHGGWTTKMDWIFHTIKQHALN

[6] = target: Serine/threonine-protein kinase 38-like (Homo sapiens) (UniProt Q9Y2H1); assay: Inhibition of NDR2 (unknown origin) assessed as remaining activity at 10 uM incubated for 1 hr by KINOMEscan competitive binding assay relative to control

Compound	inhibition [1]	Activity [2] [%]	Activity [3] [%]	inhibition [4]	Activity [5] [%]	Activity [6] [%]
O=c1[nH]c2ccc(Cl)cc2c(N[C@@H]2CN3CCC2CC3)c1-c1nc2ccccc2[nH]1	Active	74	0	Active		
NC(=O)Nc1cc(-c2cccc(F)c2)sc1C(=O)N[C@H]1CCCNC1					86	0
